From US10004791B2, “Peptide vaccines against PCSK9” (AFFIRIS AG, priority 2014, dated 2018)

Tests used:
human PCSK9 protein = assay: Protein ELISA: titers of vaccine-induced PCSK9-specific antibodies in plasma of immunized mice; assay type: in vivo, BALB/c mice; settings: for titers against huPCSK9 (ODmax/2): mean titer, n=5 BALB/c mice/group, s.c. 4 x 15 μg net peptide coupled to KLH, Alhydrogel, plasma 2 weeks after final injection, titer = serum dilution at 50% ODmax; for capacity to elicit a humoral immune response targeting PCSK9: result in words
Method: (§1) The peptides were conjugated via the heterobifunctional linker GMBS (4-Maleimidobutyric acid N-hydroxysuccinimide ester) to KLH (Keyhole Limpet Hemocyanin).
5 BALB/c mice were subcutaneously immunized. Mice had access to food and water ad libitum and were kept under a 12 h light/dark cycle. The age of mice at the beginning of experiments was 8 to 10 weeks.
(§2) Mice were injected four times in 2 week intervals with 15 μg of net peptide coupled to KLH and adsorbed to Alhydrogel as adjuvant in a volume of 1 ml in total.
(§3) Blood was taken approximately 2 weeks after the final injection.
To determine the immunogenicity of the vaccines, and thus to identify the amount of PCSK9 specific antibodies in the plasma of immunized animals, ELISA immunoassay was performed. The ELISA immunoassay generates a signal which can be easily quantified and represents a quantitative measure of the amount of vaccine induced PCSK9-specific antibodies. Thus the titers as measured by ELISA correlate directly with the amount (μg/ml) of target specific antibodies in the plasma sample of treated animals. All plasma samples were collected two weeks after the final immunization and equality treated. In order to have a direct comparison, the quantitative evaluation by the PCSK9 Protein ELISA immunoassay of the vaccine induced PCSK9-specific antibodies and the comparison to their relative controls (originals sequence and negative control) was performed for all samples simultaneously. For this purpose, ELISA plates were coated with recombinantly expressed human PCSK9 protein. Unspecific binding was blocked by incubation with blocking buffer (1% BSA in PBS). Appropriate serum dilutions (with a starting dilution of 1:100) were added to the wells, serially diluted 1:2 fold (12 dilution steps) and incubated for approximately 1 hour. Bound antibodies were detected by incubation with anti-mouse IgG antibody, ABTS was added as substrate and the OD at 405 nm was measured. As negative control sera from the control group injected with an irrelevant peptide were analyzed. The titers were defined as the dilution of the serum where 50% of the ODmax in the assay is reached.

[1] = Total cholesterol assay in plasma of immunized mice (15 μg net peptide, four injections); assay type: in vivo, BALB/c mice; settings: for TC in % (FIG. 2A) / TC in % (FIG. 2B): mean total cholesterol, single AA exchange; for TC in % (FIG. 2A): n=3 mice/group, negative control group (irrelevant peptide) set as 100%; for TC in % multiple AA exchanges (FIG. 2C): total cholesterol; for TC in % multiple AA exchanges (FIG. 2C) / TC in % (FIG. 2B): n=5 mice/group, negative control group set as 100%
Method: as §1
[…] Mice had access to food and water ad libitum and were kept under a 12 h light/dark cycle. The age of mice at the beginning of experiments was 8 to 10 weeks.
as §2, §3
(§4) All plasma samples were collected two weeks after the final immunization and equality treated. Total cholesterol (TC) measurements were performed simultaneously for all samples and side by side compared to their related controls (originals sequence and negative control). The simultaneous quantitative measurement of the plasma TC levels in mg/dL was measured by LabAssay™ Cholesterol Kit (Wako). In details, upon incubation with the chromogen reagent containing cholesterol esterase, the cholesterol esters in the samples were decomposed into free cholesterol and fatty acids. Subsequently the free cholesterol was oxidized by the cholesterol oxidase, leading to the simultaneously release of hydrogen peroxide. The produced hydrogen peroxide let DAOS and 4-Aminoantipyrin oxidize and condensate quantitatively by peroxidase (HRP), which produced blue pigment. Optical density was measured at 600 nm and quantification of the TC was calculated according to a standard curve.

huPCSK9 = assay: Inhibition of furin cleavage of huPCSK9 by plasma from vaccinated mice (SDS-PAGE / Western blot); assay type: biochemical, human; settings: 4 μl mouse plasma, 250 ng biotinylated huPCSK9, 2 U furin overnight RT; FIG. 3; result in words
Method: The furin cleavage reaction was performed with 2 Units Furin (˜110 ng) (New England Biolabs) in PCSK9 buffer containing 100 mM Hepes Buffer pH 7.5, 5% Triton-X and 1 mM CaCl. In details, 4 μl mouse plasma from VARIOTOPE®s vaccinated mice was incubated with 250 ng biotinylated huPCSK9 (BPS Bioscience) in PCSK9 buffer for 1 h at room temperature. Subsequently, 2U Furin (˜110 ng) (New England Biolabs) was added to the reaction solution and incubated over night at RT. The reaction product was analyzed by SDS-PAGE under reducing conditions.

[2] = Reduction of total cholesterol (TC) in treated animals, additional experiments (1 μg net peptide, five injections); assay type: in vivo, mice; settings: 5 animals per group, 5 x 1 μg net peptide
Method: as §4
In order to evaluate the ability of selected VARIOTOPE® vaccine candidates to reduce TC and to compare the magnitude of TC reduction in VARIOTOPE® treated animals with the TC reduction in animals treated with a vaccine containing the original sequence, 5 to 10 mice per group were injected five times in 2 week intervals with vaccines containing 1 μg of net peptide. […]

| Substance | titers against huPCSK9 (ODmax/2) (human PCSK9 protein) | further results |
| --- | --- | --- |
| 26 (PEWDGTRFHRQASK) [compound 26] | 840 |  |
| 5 (PEEDGTRFHAQASK) [compound 5] | 33442 |  |
| 7 (PEEDGTRFHRQAAK) [compound 7] | 15676 |  |
| 28 (PEEDGTGFHRQASK) [compound 28] | 0 |  |
| 23 (PEEDGTRFHRQASR) [compound 23] | 14722 | TC in % (FIG. 2A) [1]: 70% |
| 19 (PEEDGTRFHRQSSK) [compound 19] | 41310 |  |
| 21 (PEEDGTRFHRQANK) [compound 21] | 15303 |  |
| 3 (PAEDGTRFHRQASK) [compound 3] | 2774 |  |
| PEEDGTRFGRQASK [SEQ ID NO: 32] |  | capacity to elicit a humoral immune response targeting PCSK9 (human PCSK9 protein): do not have the capacity to elicit a humoral immune response targeting PCSK9 |
| 15 (PEEDGTRFHMQASK) [compound 15] | 15556 |  |
| 29 (PEEDGTRFSRQASK) [compound 29] | 33111 |  |
| 13 (PEEDGTRFHQQASK) [compound 13] | 18490 |  |
| 39 (PEEDGTRFHRQAST) [compound 39] | 13172 |  |
| PEEDGTRFHRQASR [SEQ ID NO: 23] |  | inhibition of furin cleavage of mature PCSK9 (aa153-692) / formation of truncated PCSK9 (aa219-692, ~50 kDa) by induced antibodies (huPCSK9): inhibit the furin cleavage of the mature PCSK9 |
| 20 (PEEDGTRFHRQATK) [compound 20] | 10813 |  |
| 44 (PEEDGSRFHRQATK) [compound 44] | 20684 | TC in % multiple AA exchanges (FIG. 2C) [1]: 74% |
| 9 (TEEDGTRFHRQASK) [compound 9] | 23944 |  |
| 31 (PEEDGTRFVRQASK) [compound 31] | 11850 |  |
| 27 (PEEDKTRFHRQASK) [compound 27] | 7154 |  |
| 4 (PEEDGTRFARQASK) [compound 4] | 21494 |  |
| 16 (PEEDGTRFHREASK) [compound 16] | 18670 |  |
| PQEDGTRFHRQASK [SEQ ID NO: 10] |  | inhibition of furin cleavage of mature PCSK9 (aa153-692) / formation of truncated PCSK9 (aa219-692, ~50 kDa) by induced antibodies (huPCSK9): inhibit the furin cleavage of the mature PCSK9 |
| 34 (PEEDGTRFHPQASK) [compound 34] | 20318 |  |
| PEWDGTRFHRQASK [SEQ ID NO: 26] |  | capacity to elicit a humoral immune response targeting PCSK9 (human PCSK9 protein): do not have the capacity to elicit a humoral immune response targeting PCSK9 |
| 18 (PEEDGTRFHRKASK) [compound 18] | 30537 | inhibition of furin cleavage of mature PCSK9 (aa153-692) / formation of truncated PCSK9 (aa219-692, ~50 kDa) by induced antibodies (huPCSK9): inhibit the formation of truncated furin cleaved PCSK9; TC in % (FIG. 2A) [1]: 81% |
| 11 (PKEDGTRFHRQASK) [compound 11] | 6610 |  |
| 6 (PEEDGTRFHRAASK) [compound 6] | 22475 |  |

| Substance | titers against huPCSK9 (ODmax/2) (human PCSK9 protein) | further results |
| --- | --- | --- |
| 37 (PEEDGTRFHRQTSK) [compound 37] | 25826 |  |
| 41 (PEEDGSRFHKQASK) [compound 41] | 37296 | TC in % multiple AA exchanges (FIG. 2C) [1]: 66% |
| 32 (PEEDGTRFGRQASK) [compound 32] | 822 |  |
| 25 (KEEDGTRFHRQASK) [compound 25] | 19315 |  |
| 35 (PEEDGTRFHSQASK) [compound 35] | 29223 |  |
| 12 (PEEDGSRFHRQASK) [compound 12] | 12636 |  |
| 14 (PEEDGTRFHKQASK) [compound 14] | 17795 |  |
| 2 (AEEDGTRFHRQASK) [compound 2] | 36869 |  |
| 1 (PEEDGTRFHRQASK) [compound 1] | 12074 | TC in % (FIG. 2A) [1]: 81%; TC in % (FIG. 2B) [1]: 89%; TC in % multiple AA exchanges (FIG. 2C) [1]: 81% |
| 17 (PEEDGTRFHRRASK) [compound 17] | 28996 | inhibition of furin cleavage of mature PCSK9 (aa153-692) / formation of truncated PCSK9 (aa219-692, ~50 kDa) by induced antibodies (huPCSK9): inhibit the formation of truncated furin cleaved PCSK9; TC in % (FIG. 2A) [1]: 81% |
| PEEDGTRFHRKASK [SEQ ID NO: 18] |  | inhibition of furin cleavage of mature PCSK9 (aa153-692) / formation of truncated PCSK9 (aa219-692, ~50 kDa) by induced antibodies (huPCSK9): inhibit the furin cleavage of the mature PCSK9 |
| 30 (PEEDGTRFTRQASK) [compound 30] | 9519 |  |
| PEEDGTRFHRQASL [SEQ ID NO: 24] |  | TC values in comparison to the control group (FIG. 4) ([2]; control group set as 100%, result in words): possesses the ability to reduce TC levels compared to the negative control; TC levels compared to the original peptide containing vaccine (FIG. 5) ([2]; original sequence group set to 0%, positive = higher TC): +9% |
| 8 (PEEDGTRFHRQASA) [compound 8] | 23638 |  |
| 22 (PEEDGTRFHRQALK) [compound 22] | 8694 |  |
| PEEDGTGFHRQASK [SEQ ID NO: 28] |  | capacity to elicit a humoral immune response targeting PCSK9 (human PCSK9 protein): do not have the capacity to elicit a humoral immune response targeting PCSK9 |
| 38 (PEEDGTRFHRQASS) [compound 38] | 31481 |  |
| 33 (PEEDGTRFMRQASK) [compound 33] | 10651 |  |
| 10 (PQEDGTRFHRQASK) [compound 10] | 29228 | inhibition of furin cleavage of mature PCSK9 (aa153-692) / formation of truncated PCSK9 (aa219-692, ~50 kDa) by induced antibodies (huPCSK9): inhibit the formation of truncated furin cleaved PCSK9; TC in % (FIG. 2A) [1]: 78% |
| 36 (PEEDGTRFHRTASK) [compound 36] | 29984 | TC in % (FIG. 2B) [1]: 72% |
| 40 (PEEDGTRFHRQASV) [compound 40] | 22678 |  |
| 24 (PEEDGTRFHRQASL) [compound 24] | 19471 |  |
| 43 (PEEDGSRFHRRASK) [compound 43] | 29435 |  |
| PEEDGTRFHRRASK [SEQ ID NO: 17] |  | inhibition of furin cleavage of mature PCSK9 (aa153-692) / formation of truncated PCSK9 (aa219-692, ~50 kDa) by induced antibodies (huPCSK9): inhibit the furin cleavage of the mature PCSK9 |
| 42 (PEEDGSRFHMQASK) [compound 42] | 18599 |  |
| 45 (PEEDGSRFHRRATK) [compound 45] | 11097 |  |
